Results published in PMC4332545 (ChemMedChem, 2009).

What was measured:
[1] = tested on: 6 Hz (32 mA) corneal stimulation seizures in CF-1 mice; assay: 6 Hz partial psychomotor seizure model; format: in vivo; conditions: mouse 6 Hz, 30 min after dosing
[2] = tested on: Frings mouse model of epilepsy; conditions: in vivo; cited from earlier work

| Compound | Anticonvulsant Assay, icv ED50 [1] [nmol] | Anticonvulsant activity in the Frings mouse model [2] |
| --- | --- | --- |
| CC[C@H](C)[C@H](NC(=O)[C@H](Cc1ccc(O)cc1)NC(=O)[C@@H]1CCCN1C(=O)[C@H](CCCNC(=N)N)NC(=O)[C@@H](N)CCCNC(=N)N)C(=O)N[C@@H](CC(C)C)C(=O)O [NT(8–13), H-RRPYIL-OH] | 0.0011 | – |
| ZSEEGGSNATKKPYIL [Contulakin-G] | – | potent anticonvulsant activity |
